# Counter-ions that a name gives are not always drawn.
row,SMILES,melting point
1,O=C(Nc1cccc2c1C(=O)N(CCC(=O)N1CCN(c3ccncc3)CC1)C2)c1ccc(Cl)s1 (as salt: TFA) [Example 88],118 °C
2,"O=C(Nc1cccc2c1C(=O)N(CCC(=O)N1CCN(c3ccncc3)CC1)C2=O)c1ccc(Cl)s1 [Example 5, 5-Chloro-N-(1,3-dioxo-2-{3-oxo-3-[4-(4-pyridinyl)piperazino]propyl}-2,3-dihydro-1H-isoindol-4-yl)-2-thiophenecarboxamide]",167 °C
3,O=C(Nc1cccc2c1C(=O)N(CC(=O)N1CCN(c3cnccn3)CC1)C2=O)c1ccc(Cl)s1 [Example 6],237 °C
4,O=C(Nc1cccc2c1C(=O)N(CC(=O)N1CCN(c3ccccn3)CC1)C2=O)c1ccc(Cl)s1 [Example 7],203 °C
5,Cc1cccc(N2CCN(C(=O)CN3C(=O)c4cccc(NC(=O)c5ccc(Cl)s5)c4C3=O)CC2)c1 [Example 8],136 °C
6,N#Cc1ccc(N2CCN(C(=O)CN3C(=O)c4cccc(NC(=O)c5ccc(Cl)s5)c4C3=O)CC2)nc1 [Example 9],169 °C (dec.)
7,O=C(Nc1cccc2c1C(=O)N(CC(=O)N1CCN(c3cccc4[nH]ccc34)CC1)C2=O)c1ccc(Cl)s1 [Example 10],209 °C
8,O=C(Nc1cccc2c1C(=O)N(CC(=O)N1CCN(c3ncnc4sccc34)CC1)C2=O)c1ccc(Cl)s1 [Example 12],277 °C
9,N#Cc1nccnc1N1CCN(C(=O)CN2C(=O)c3cccc(NC(=O)c4ccc(Cl)s4)c3C2=O)CC1 [Example 13],242 °C
10,Cc1cccc(N2CCN(C(=O)CN3C(=O)c4cccc(NC(=O)c5ccc(Cl)s5)c4C3=O)CC2)n1 [Example 14],241 °C
11,CC(C)NC(=O)CN1CCN(C(=O)CN2C(=O)c3cccc(NC(=O)c4ccc(Cl)s4)c3C2=O)CC1 [Example 16],124 °C
12,CN(C)C(=O)CN1CCN(C(=O)CN2C(=O)c3cccc(NC(=O)c4ccc(Cl)s4)c3C2=O)CC1 [Example 17],189 °C
13,O=C(Nc1cccc2c1C(=O)N(CC(=O)N1CCN(CC(=O)N3CCCC3)CC1)C2=O)c1ccc(Cl)s1 [Example 19],122 °C
14,O=C(Nc1cccc2c1C(=O)N(CC(=O)N1CCN(CCCN3CCCCC3)CC1)C2=O)c1ccc(Cl)s1 [Example 20],104 °C
15,O=C(Nc1cccc2c1C(=O)N(CC(=O)N1CCN(CC(=O)N3CCOCC3)CC1)C2=O)c1ccc(Cl)s1 [Example 21],230 °C
16,COCCN1CCN(C(=O)CN2C(=O)c3cccc(NC(=O)c4ccc(Cl)s4)c3C2=O)CC1 [Example 22],158 °C
17,O=C(Nc1cccc2c1C(=O)N(CC(=O)N1CCC(NCc3cccnc3)CC1)C2=O)c1ccc(Cl)s1 [Example 24],220 °C
18,Nc1cnccc1N1CCN(C(=O)CN2C(=O)c3cccc(NC(=O)c4ccc(Cl)s4)c3C2=O)CC1 [Example 27],178 °C
19,O=C(CN1C(=O)c2cccc(NC(=O)c3ccc(Cl)s3)c2C1=O)NCC1CCN(c2ccncc2)CC1 [Example 28],256 °C
20,O=C(Nc1cccc2c1C(=O)N(CC(=O)N1CCN(c3ccc4c(c3)OCO4)CC1)C2=O)c1ccc(Cl)s1 [Example 32],203 °C
21,"O=C(Nc1cccc2c1C(=O)N(CC(=O)N1CCC(CO)CC1)C2=O)c1ccc(Cl)s1 [Example 36, 5-Chloro-N-(2-{2-[4-(hydroxymethyl)piperidino]-2-oxoethyl}-1,3-dioxo-2,3-dihydro-1H-isoindol-4-yl)-2-thiophenecarboxamide]",198 °C
22,"O=C(Nc1cccc2c1C(=O)N(C1CCN(c3ccncc3)CC1)C2=O)c1ccc(Cl)s1 [Example 63, 5-Chloro-N-{1,3-dioxo-2-[1-(4-pyridinyl)-4-piperidinyl]-2,3-dihydro-1H-isoindol-4-yl}-2-thiophenecarboxamide]",214 °C
23,O=C(Nc1cccc2c1C(=O)N(CC(=O)N1CCC(CO)CC1)C2O)c1ccc(Cl)s1 (stereo not shown) [Example 89],233 °C
24,O=C(Nc1cccc2c1C(O)N(CC(=O)N1CCC(CO)CC1)C2=O)c1ccc(Cl)s1 (stereo not shown) [Example 90],234 °C (dec.)
25,O=C(Nc1cccc2c1CN(CC(=O)N1CCC(CO)CC1)C2=O)c1ccc(Cl)s1 [Example 92],209 °C

# Reference: patent US7482472B2, “Substituted isoindoles and their use” (Bayer Healthcare AG, priority 2002, dated 2009)
